# Test results from patent US20110098288A1, “SULFONAMIDES AS ZAP-70 INHIBITORS” (priority 2008, published 2011).
# Structures can show the parent of a compound that is named as a salt.
# Target: T1, ZAP-70 (Homo sapiens, UniProt P43403)
# T1 construct: endogenous in cells; host or cells: cell lysate
# T1 sequence (P43403 1-619): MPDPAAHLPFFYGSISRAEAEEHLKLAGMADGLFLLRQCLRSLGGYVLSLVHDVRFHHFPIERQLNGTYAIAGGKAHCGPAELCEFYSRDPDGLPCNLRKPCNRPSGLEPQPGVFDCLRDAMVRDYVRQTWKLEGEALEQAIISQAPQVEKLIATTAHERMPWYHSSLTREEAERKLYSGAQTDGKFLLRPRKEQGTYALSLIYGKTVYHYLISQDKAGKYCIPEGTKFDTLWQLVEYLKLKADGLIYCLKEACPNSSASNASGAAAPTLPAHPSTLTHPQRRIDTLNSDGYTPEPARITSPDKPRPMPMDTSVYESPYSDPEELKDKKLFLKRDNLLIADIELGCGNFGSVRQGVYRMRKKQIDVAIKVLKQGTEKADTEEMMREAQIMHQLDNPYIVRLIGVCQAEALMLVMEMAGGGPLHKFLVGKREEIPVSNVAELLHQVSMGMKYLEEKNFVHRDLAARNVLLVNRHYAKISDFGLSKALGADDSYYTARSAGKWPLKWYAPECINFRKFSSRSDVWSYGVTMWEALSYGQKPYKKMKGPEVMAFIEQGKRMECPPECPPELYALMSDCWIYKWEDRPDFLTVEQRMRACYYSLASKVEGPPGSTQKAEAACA
# Assay: ZAP-70 kinobeads assay
# Assay type: binding
# Details: competition with immobilized aminopyrido-pyrimidine ligand 24 in cell lysate; ZAP-70 detected by dot blot
# Protocol: The compounds of the present invention as described in the previous examples can be tested in the ZAP-70 kinobeads assay as described (EP-A 1862802 and WO-A 2007/137867). Briefly, test compounds (at various concentrations) and the affinity matrix with the immobilized aminopyrido-pyrimidine ligand 24 are added to cell lysate aliquots and allowed to bind to the proteins in the lysate sample. After the incubation time the beads with captured proteins are separated from the lysate. Bound proteins are then eluted and the presence ZAP-70 is detected and quantified using a specific antibody in a dot blot procedure and the Odyssey infrared detection system. Conventionally, ZAP-70 kinase activity can be measured using purified or recombinant enzyme in a solution-based assay with protein or peptide substrates (Isakov et al., 1996, J. Biol. Chem. 271(26), 15753-15761; Moffat et al., 1999, Bioorg. Med. Chem. Letters 9, 3351-3356).
row,IC50,SMILES
1,0.1 to 1 µM,"COCCOc1cccc(Nc2ncc(F)c(Nc3cccc(C)c3NS(C)(=O)=O)n2)c1 [Example 115, N-(2-(5-fluoro-2-(3-(2-methoxyethoxy)phenylamino)pyrimidin-4-ylamino)-6-methylphenyl)methanesulfonamide]"
2,1 to 10 µM,"Cc1nc(-c2ccc(Nc3ncc(F)c(Nc4ccccc4NS(C)(=O)=O)n3)cc2)cs1 [Example 192, N-(2-(5-fluoro-2-(4-(2-methylthiazol-4-yl)phenylamino)pyrimidin-4-ylamino)phenyl)methanesulfonamide]"
3,1 to 10 µM,"CCCOc1cccc(Nc2ncc(F)c(Nc3cccc(C)c3NS(C)(=O)=O)n2)c1 [Example 122, N-(2-(5-fluoro-2-(3-propoxyphenylamino)pyrimidin-4-ylamino)-6-methylphenyl)methanesulfonamide]"
4,1 to 10 µM,"Cc1nc(-c2cccc(Nc3ncc(F)c(Nc4ccccc4NS(C)(=O)=O)n3)c2)no1 [Example 189, N-(2-(5-fluoro-2-(3-(5-methyl-1,2,4-oxadiazol-3-yl)phenylamino)pyrimidin-4-ylamino)phenyl)methanesulfonamide]"
5,0.1 to 1 µM,"CS(=O)(=O)Nc1ccccc1Nc1nc(Nc2cccc(OCC(=O)O)c2)ncc1F [Example 99, 2-(3-(5-fluoro-4-(2-(methylsulfonamido)phenylamino)pyrimidin-2-ylamino)phenoxy)acetic acid hydrochloride]"
6,0.1 to 1 µM,"CS(=O)(=O)Nc1ccccc1Nc1nc(Nc2cccc(-c3cnco3)c2)ncc1F [Example 193, N-(2-(5-fluoro-2-(3-(oxazol-5-yl)phenylamino)pyrimidin-4-ylamino)phenyl)methanesulfonamide]"
7,0.1 to 1 µM,"COc1cc(Nc2ncc(F)c(Nc3ccccc3N(C)S(C)(=O)=O)n2)cc(OC)c1OC [Example 71, N-(2-(5-fluoro-2-(3,4,5-trimethoxyphenylamino)pyrimidin-4-ylamino)phenyl)-N-methylmethanesulfonamide]"
8,0.1 to 1 µM,"COc1cc(Nc2ncc(F)c(Nc3cccc(C)c3NS(C)(=O)=O)n2)cc(OCC2CC2)c1OC [Example 120, N-(2-(2-(3-(cyclopropylmethoxy)-4,5-dimethoxyphenylamino)-5-fluoropyrimidin-4-ylamino)-6-methylphenyl)methanesulfonamide]"
9,0.1 to 1 µM,"CS(=O)(=O)Nc1ccccc1Nc1nc(Nc2cccc(-n3cnnn3)c2)ncc1Cl [Example 203, N-(2-(2-(3-(1H-tetrazol-1-yl)phenylamino)-5-chloropyrimidin-4-ylamino)phenyl)methanesulfonamide]"
10,1 to 10 µM,"Cc1cccc(Nc2nc(Nc3cccc(OC(C)C)c3)ncc2F)c1NS(C)(=O)=O [Example 121, N-(2-(5-fluoro-2-(3-isopropoxyphenylamino)pyrimidin-4-ylamino)-6-methylphenyl)methanesulfonamide]"
11,0.1 to 1 µM,"CCN(CC)C(=O)COc1cccc(Nc2ncc(F)c(Nc3ccccc3NS(C)(=O)=O)n2)c1 [Example 100, N,N-diethyl-2-(3-(5-fluoro-4-(2-(methylsulfonamido)phenylamino)pyrimidin-2-ylamino)phenoxy)acetamide 2,2,2-trifluoroacetate]"
12,1 to 10 µM,"CCN(c1ccccc1Nc1nc(Nc2ccc(OC)c(OC)c2)ncc1F)S(C)(=O)=O [Example 157, N-(2-(2-(3,4-dimethoxyphenylamino)-5-fluoropyrimidin-4-ylamino)phenyl)-N-ethylmethanesulfonamide]"
13,0.1 to 1 µM,"CS(=O)(=O)Nc1ccccc1Nc1nc(Nc2cccc(OC(F)F)c2)ncc1Br [Example 103, N-(2-(5-bromo-2-(3-(difluoromethoxy)phenylamino)pyrimidin-4-ylamino)phenyl)methanesulfonamide]"
14,1 to 10 µM,"CCOC(=O)COc1ccc(Nc2ncc(F)c(Nc3ccccc3NS(C)(=O)=O)n2)cc1 [Example 144, Ethyl 2-(4-(5-fluoro-4-(2-(methylsulfonamido)phenylamino)pyrimidin-2-ylamino)phenoxy)acetate hydrochloride]"
15,1 to 10 µM,"COc1ccc(Nc2ncc(F)c(Nc3ccccc3N(C)S(C)(=O)=O)n2)cc1 [Example 108, N-(2-(5-fluoro-2-(4-methoxyphenylamino)pyrimidin-4-ylamino)phenyl)-N-methylmethanesulfonamide]"
16,1 to 10 µM,"CS(=O)(=O)Nc1ccccc1Nc1nc(Nc2ccc(C#N)cc2)ncc1Cl [Example 204, N-(2-(5-chloro-2-(4-cyanophenylamino)pyrimidin-4-ylamino)phenyl)methanesulfonamide]"
17,0.1 to 1 µM,"Cc1cc(C)n(-c2ccc(Nc3ncc(Cl)c(Nc4ccccc4NS(C)(=O)=O)n3)cc2)n1 [Example 210, N-(2-(5-chloro-2-(4-(3,5-dimethyl-1H-pyrazol-1-yl)phenylamino)pyrimidin-4-ylamino)phenyl)methanesulfonamide]"
18,0.1 to 1 µM,"CS(=O)(=O)Nc1ccccc1Nc1nc(Nc2cccc(C(=O)N3CCCC3)c2)ncc1F [Example 82, N-(2-(5-fluoro-2-(3-(pyrrolidine-1-carbonyl)phenylamino)pyrimidin-4-ylamino)phenyl)methanesulfonamide]"
19,0.1 to 1 µM,"COc1cc(Nc2ncc(F)c(Nc3ccccc3NS(C)(=O)=O)n2)ccc1C [Example 73, N-(2-(5-fluoro-2-(3-methoxy-4-methylphenylamino)pyrimidin-4-ylamino)phenyl)methanesulfonamide]"
20,0.1 to 1 µM,"CS(=O)(=O)Nc1ccccc1Nc1nc(Nc2ccc3c(c2)OCC(=O)N3)ncc1F [Example 23, N-(2-(5-fluoro-2-(3-oxo-3,4-dihydro-2H-benzo[b][1,4]oxazin-7-ylamino)pyrimidin-4-ylamino)phenyl)methanesulfonamide]"
21,1 to 10 µM,"CSc1cccc(Nc2ncc(F)c(Nc3ccccc3NS(C)(=O)=O)n2)c1 [Example 15, N-(2-(5-fluoro-2-(3-(methylthio)phenylamino)pyrimidin-4-ylamino)phenyl)methanesulfonamide]"
22,0.1 to 1 µM,"CN(c1ccccc1Nc1nc(Nc2ccc(OCCN3CCCCC3)cc2)ncc1F)S(C)(=O)=O [Example 110, N-(2-(5-fluoro-2-(4-(2-(piperidin-1-yl)ethoxy)phenylamino)pyrimidin-4-ylamino)phenyl)-N-methylmethanesulfonamide]"
23,< 0.1 µM,"COc1cc(Nc2ncc(F)c(Nc3ccccc3NS(C)(=O)=O)n2)cc(OC)c1OCCN1CCCC1 [Example 75, N-(2-(2-(3,5-dimethoxy-4-(2-(pyrrolidin-1-yl)ethoxy)phenylamino)-5-fluoropyrimidin-4-ylamino)phenyl)methanesulfonamide]"
24,0.1 to 1 µM,"COc1ccc(Nc2nc(Nc3cc(OC)c(OC)c(OC)c3)ncc2F)c(NS(C)(=O)=O)c1C [Example 163, N-(6-(5-fluoro-2-(3,4,5-trimethoxyphenylamino)pyrimidin-4-ylamino)-3-methoxy-2-methylphenyl)methanesulfonamide]"
25,1 to 10 µM,"COc1cc(Nc2ncc(F)c(Nc3ccccc3NS(=O)(=O)CCN(C)C)n2)cc(OC)c1OC [Example 61, 2-(Dimethylamino)-N-(2-(5-fluoro-2-(3,4,5-trimethoxyphenylamino)pyrimidin-4-ylamino)phenyl)ethanesulfonamide]"
26,0.1 to 1 µM,"CN(c1ccccc1Nc1nc(Nc2ccc(OCCN3CCOCC3)cc2)ncc1F)S(C)(=O)=O [Example 111, N-(2-(5-fluoro-2-(4-(2-morpholinoethoxy)phenylamino)pyrimidin-4-ylamino)phenyl)-N-methylmethanesulfonamide]"
